# Measurements reported in patent publication US10786580B2, “Cholecystokinin 2 receptor targeted NIR imaging and use thereof” (On Target Laboratories, LLC, priority 2016, dated 2020).
# Like-named read-outs stand apart in the source and are kept apart here.
# How the values were obtained:
# [1] = molecular target: T1, CCK2R (Homo sapiens, UniProt P32239); experiment: In vitro binding of CCK2R-NIR compounds to HEK-CCK2R cells (cell bound fluorescence); parameters: expressed in transfected cells; host or cells: HEK (human embryonic kidney) cells, HEK-CCK2R, gift from Dr. Mark Hellmich (UTMB); details: for affinity for CCK2R (in words): in vitro binding affinity data; for Kd: CCK2R-positive HEK-CCK2R cancer cells, 1 h at 37° C., read-out: KD
# T1 sequence (P32239 1-447): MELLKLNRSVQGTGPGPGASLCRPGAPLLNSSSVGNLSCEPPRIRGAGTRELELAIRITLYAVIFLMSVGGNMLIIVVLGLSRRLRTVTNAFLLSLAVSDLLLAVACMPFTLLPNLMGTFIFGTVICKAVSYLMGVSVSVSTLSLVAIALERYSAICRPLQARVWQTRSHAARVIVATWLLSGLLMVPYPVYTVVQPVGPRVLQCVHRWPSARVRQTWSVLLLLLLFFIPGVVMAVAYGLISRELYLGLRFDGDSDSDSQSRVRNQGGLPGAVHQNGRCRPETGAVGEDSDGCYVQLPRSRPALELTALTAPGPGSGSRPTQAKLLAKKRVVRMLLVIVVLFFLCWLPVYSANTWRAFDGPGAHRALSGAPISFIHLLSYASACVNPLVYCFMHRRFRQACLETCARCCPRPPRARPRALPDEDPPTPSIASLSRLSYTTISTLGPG
# Description: (§1) FIG. 4 depicts the binding affinities of CCK2R-NIR compounds 21, 42-44 to CCK2R. CCK2R-positive HEK-CCK2R cancer cells were incubated for 1 h at 37° C. with increasing concentrations of compounds. Media was then removed, washed with fresh media three times, and replaced with PBS. Cell bound fluorescence was assayed as using fluorometer.
# CCK2R-positive HEK-CCK2R cancer cells were incubated for 1 h at 37° C. with increasing concentrations of compounds. Media was then removed, washed with fresh media three times, and replaced with PBS. Cell bound fluorescence was assayed as using fluorometer.
# as §1, with “13 illustrates” for “4 depicts”, “affinity” for “affinities”, “of” for “of CCK2R-NIR”, “[…]” for “21, 42-44”, “compound 21.” for “compounds.”
# HEK-CCK2 cells (a human embryonic kidney cells transfected with CCK2 receptor) were a kind gift from Dr. Mark Hellmich (University of Texas Medical Branch, Galveston, Tex.) and grown as a monolayer using Dulbecco's Modified Eagles Medium (GIBCO) (Gibco, NY) 10% heat-inactivated fetal bovine serum (Atlanta Biological, GA) and 1% penicillin streptomycin (Gibco, NY) in a 5% carbon dioxide: 95% air-humidified atmosphere at 37° C. for at least six passages before they were used for the assays.
# HEK cells that overexpress CCK2 were seeded into a T75 flask and allowed to form a monolayer over 48 h. After trypsin digestion, release cells were transferred into centrifuge tubes (1×10^6 cells/tube) and centrifuged. The medium was replaced with fresh medium containing increasing concentration of requisite CCK2R-Ligand-NIR dye compound in the presence or absence of 100-fold excess the ligand, a high affinity CCK2 receptor antagonist, and incubated for 1 h at 37° C. After rinsing with fresh medium (2×1.0 mL) and PBS (1×1.0 mL), cells were resuspended in PBS (1.0 mL) and cell bound fluorescence was analyzed (100,000 cells/sample) using a fluorometer (Cary, Agilent). The relative binding affinities were calculated using a plot of % cell bound fluorescence versus the log concentration of the test article using GraphPad Prism 4.
# [2] = molecular target: T1, CCK2R; details: cited from earlier work
# [3] = molecular target: T2, CCK1R (Homo sapiens, UniProt P32238); details: cited from earlier work
# T2 sequence (P32238 1-428): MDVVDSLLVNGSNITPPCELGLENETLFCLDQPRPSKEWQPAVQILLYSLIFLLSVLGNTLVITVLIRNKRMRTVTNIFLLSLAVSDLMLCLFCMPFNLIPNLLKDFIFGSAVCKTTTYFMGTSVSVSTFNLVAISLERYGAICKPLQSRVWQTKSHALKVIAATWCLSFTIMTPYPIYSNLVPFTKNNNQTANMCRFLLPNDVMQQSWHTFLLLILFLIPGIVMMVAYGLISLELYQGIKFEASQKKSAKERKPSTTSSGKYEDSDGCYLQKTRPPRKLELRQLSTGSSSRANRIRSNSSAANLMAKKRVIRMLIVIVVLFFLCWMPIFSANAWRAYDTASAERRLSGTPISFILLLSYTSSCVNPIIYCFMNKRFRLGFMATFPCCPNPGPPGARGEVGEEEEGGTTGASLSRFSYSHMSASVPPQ
# [4] = tested on: subcutaneous PANC-1 tumor; details: oral Z-360 along with gemcitabine, cited from earlier work
affinity for CCK2R (in words) ([1]; HEK-CCK2R cells),Kd ([1]; Table 2),Compound,further results
relatively weaker affinity,,CC(C)(C)C(=O)CN1C(=O)[C@@H](NC(=O)Nc2cccc(C(=O)N[C@@H](CCC(=O)N[C@H](CCCNC(=N)N)C(=O)N[C@H](CC(=O)O)C(=O)N[C@H](Cc3ccc(OC4=C(/C=C/C5=[N+](CCCCS(=O)(=O)[O-])c6ccc(S(=O)(=O)O)cc6C5(C)C)CCC/C4=C\C=C4\N(CCCCS(=O)(=O)O)c5ccc(S(=O)(=O)O)cc5C4(C)C)cc3)C(=O)O)C(=O)O)c2)CN(C2CCCCC2)c2ccccc21 [Compound 44],
,2.3 nM,CC(C)(C)C(=O)CN1C(=O)[C@H](NC(=O)Nc2cccc(C(=O)N[C@@H](CCC(=O)N[C@@H](Cc3ccc(OC4=C(/C=C/C5=[N+](CCCCS(=O)(=O)[O-])c6ccc(S(=O)(=O)O)cc6C5(C)C)CCC/C4=C\C=C4\N(CCCCS(=O)(=O)O)c5ccc(S(=O)(=O)O)cc5C4(C)C)cc3)C(=O)O)C(=O)O)c2)CN(C2CCCCC2)c2ccccc21 [Compound 45],
very high affinity,,CC(C)(C)C(=O)CN1C(=O)[C@@H](NC(=O)Nc2cccc(C(=O)N[C@H](CCC(=O)O)C(=O)N[C@H](Cc3ccc(OC4=C(/C=C/C5=[N+](CCCCS(=O)(=O)[O-])c6ccc(S(=O)(=O)O)cc6C5(C)C)CCC/C4=C\C=C4\N(CCCCS(=O)(=O)O)c5ccc(S(=O)(=O)O)cc5C4(C)C)cc3)C(=O)O)c2)CN(C2CCCCC2)c2ccccc21 [Compound 43],
,,CC(C)(C)C(=O)CN1C(=O)[C@H](NC(=O)Nc2cccc(C(=O)O)c2)CN(C2CCCCC2)c2ccccc21 [Compound Z-360],Ki [2]: 0.47 nM; selectivity ratio over CCK1R [3]: 672; inhibition of subcutaneous PANC-1 tumor growth ([4]; compared with either agent alone): 27.1%; survival compared with the vehicle [4]: significantly increased survival
very high affinity,0.9 nM,CC(C)(C)C(=O)CN1C(=O)[C@H](NC(=O)Nc2cccc(C(=O)NCCCC(=O)N[C@@H](Cc3ccc(OC4=C(/C=C/C5=[N+](CCCCS(=O)(=O)[O-])c6ccc(S(=O)(=O)O)cc6C5(C)C)CCC/C4=C\C=C4\N(CCCCS(=O)(=O)O)c5ccc(S(=O)(=O)O)cc5C4(C)C)cc3)C(=O)O)c2)CN(C2CCCCC2)c2ccccc21 [Compound 48],affinity for CCK2R compared to compound 21 ([1]; HEK-CCK2R cells): less affinity
relatively weaker affinity,,CC(C)(C)C(=O)CN1C(=O)[C@H](NC(=O)Nc2cccc(C(=O)N[C@H](CCC(=O)N[C@@H](CCCNC(=N)N)C(=O)N[C@@H](Cc3ccc(OC4=C(/C=C/C5=[N+](CCCCS(=O)(=O)[O-])c6ccc(S(=O)(=O)O)cc6C5(C)C)CCC/C4=C\C=C4\N(CCCCS(=O)(=O)O)c5ccc(S(=O)(=O)O)cc5C4(C)C)cc3)C(=O)O)C(=O)O)c2)CN(C2CCCCC2)c2ccccc21 [Compound 42],Kd ([1]; Table 1): 1.74 nM
relatively weak affinity,14.7 nM,CC(C)(C)C(=O)CN1C(=O)[C@@H](NC(=O)Nc2cccc(C(=O)N[C@H](CCC(=O)N[C@@H](Cc3ccc(OC4=C(/C=C/C5=[N+](CCCCS(=O)(=O)[O-])c6ccc(S(=O)(=O)O)cc6C5(C)C)CCC/C4=C\C=C4\N(CCCCS(=O)(=O)O)c5ccc(S(=O)(=O)O)cc5C4(C)C)cc3)C(=O)O)C(=O)O)c2)CN(C2CCCCC2)c2ccccc21 [Compound 47],
,13.9 nM,CC(C)(C)C(=O)CN1C(=O)[C@H](NC(=O)Nc2cccc(C(=O)NCCCC(=O)N[C@H](Cc3ccc(OC4=C(/C=C/C5=[N+](CCCCS(=O)(=O)[O-])c6ccc(S(=O)(=O)O)cc6C5(C)C)CCC/C4=C\C=C4\N(CCCCS(=O)(=O)O)c5ccc(S(=O)(=O)O)cc5C4(C)C)cc3)C(=O)O)c2)CN(C2CCCCC2)c2ccccc21 [Compound 49],
